Source: patent publication US8664400B2, “Triphenylamine derivatives useful as fluorophores in biology, in particular for two-photon microscopy” (Centre National de la Recherche Scientifique, priority 2006, dated 2014)
Read-outs that look alike come from different tables or passages of the source.

Assays:
[1] = Photostability under irradiation with a 150 W xenon-mercury lamp; type: physicochemical; conditions: about thirty minutes
[2] = 36 μM, 20° C.; cited from earlier work
[3] = according to the literature; cited from earlier work
[4] = Two-photon absorption by two-photon-induced fluorescence (TPIF); type: physicochemical
Protocol: (§1) The two-photon absorption properties of the compounds according to the invention were assessed using the two-photon-induced fluorescence (TPIF) technique and by means of a Titanium:Sapphire femtosecond laser source with pulses of 90 fs to 76 MHz which can be tuned to 750-840 nm.

CHO K1 cells = assay: Epifluorescence and confocal microscopy of fixed, treated cells; type: cell-based, Chinese hamster
Protocol: The CHO-K1 cells, cultured beforehand in wells, on glass supports coated with polyornithine, containing a commercially available standard culture medium, were fixed using a formaldehyde (4%) solution in PBS.
The cells were then incubated, at room temperature and for 20 minutes, in the presence of the markers or mixtures of markers to be tested (in aqueous solution) and then washed with PBS buffer (13 mM NaCl, 0.27 mM KCl, 0.15 mM KH2PO4, 0.8 mM Na2HPO4, pH 7.4) in order to remove the excess marker. […] The cells were then prepared conventionally for microscopic examination.
Epifluorescence microscopy examinations were carried out with a Nikon Eclipse E 800 microscope fitted with a 60× (1.4) lens and a Nikon DXM 1200 digital apparatus, while the confocal microscopy examinations were carried out with a Leica DM6000 microscope comprising an SP2 unit equipped with a 63× (1.4) lens and an HeNe laser for excitation of the markers.

[5] = Emission and single-photon absorption properties in glycerol or sodium cacodylate buffer; type: physicochemical
[6] = system: duplex DNA of 26 base pairs of self-complementary sequence (ds26); assay: Single-photon absorption and fluorescence emission in the presence of DNA; type: binding; conditions: for ΦF (quantum fluorescence yield) / ε / λabs. / λem.: DNA
herring testis DNA = assay: Two-photon absorption (TPIF) in the presence of DNA; type: physicochemical; conditions: for two-photon spectra in presence of DNA compared with glycerol: sodium cacodylate buffer 10 mM, pH 7.3, 5 equivalents herring testis DNA, all excitation wavelengths
Protocol: as §1

ds26 DNA = assay: Affinity for DNA by fluorometric titration; type: binding; conditions: 10 mM sodium cacodylate buffer, pH 7.0, 100 mM NaCl
[7] = 10 mM sodium cacodylate, pH 7.0, 5 μM compound, 0.5 to 5 equivalents ds26

ε ([5]; Na cacodyl.)	λabs. ([5]; Na cacodyl.)	ΦF (quantum fluorescence yield) ([5]; glyc.)	ε ([5]; glyc.)	λabs. ([5]; glyc.)	λem. ([5]; glyc.)	ΦF (quantum fluorescence yield) [6]	ε [6]	λabs. [6]	λem. [6]	SMILES	hypochromism caused by the presence of DNA [6, 7]	two-photon spectra in presence of DNA compared with glycerol (herring testis DNA)	other results
–	–	–	–	–	–	–	–	–	–	CN1C(=CC=Cc2cc[n+](CCC[N+](C)(C)C)c3ccccc23)Sc2ccccc21.[I-].[I-] [TO-PRO-3, 1-(N,N,N-trimethylaminopropyl)-4-{2-[3-methyl-2,3-dihydro-(benzo-1,3-thiazole)-2-ethylidene]vinyl}quinolinium iodide, reference compound]	–	–	decrease of fluorescence emission during irradiation [1]: more than 40%
–	–	–	–	–	–	–	–	–	–	CN1C(=Cc2cc[n+](C)c3ccccc23)Sc2ccccc21 [thiazole orange]	–	–	form in aqueous medium (aggregation) [2]: in the form of dimers
–	–	–	–	–	–	–	–	–	–	C(=Cc1ccc(N(c2ccc(C=Cc3ccncc3)cc2)c2ccc(C=Cc3ccncc3)cc2)cc1)c1ccncc1 [tris[4-(2-pyridin-4-ylvinyl)phenyl]amine, reference compound]	–	–	efficient two-photon absorption section [3]: 58 GM; two-photon excitation maximum ([4]; in dichloromethane): around 820 nm; efficient two-photon absorption section ([4]; measurements performed by the Inventors, in dichloromethane): 90 GM
59 000 L/mol · cm	474 nm	0.123	66 000 L/mol · cm	491 nm	665 nm	0.021	51 000 L/mol · cm	499 nm	684 nm	C[n+]1ccc(C=Cc2ccc(N(c3ccc(C=Cc4cc[n+](C)cc4)cc3)c3ccc(C=Cc4cc[n+](C)cc4)cc3)cc2)cc1.[I-].[I-].[I-] [TP-3Py, Tris[4-(2-N-methylpyridinium-4-ylvinyl)phenyl]amine iodide]	about 20%	identical to those previously observed in glycerol	image quality of chromosomes (CHO K1 cells; CHO K1 cells in mitosis, 2 μM, phase contrast and confocal microscopies coupled): very high degree of sharpness and a high resolution; location of fluorescence in cells (CHO K1 cells; fixed CHO K1 cells, 2 μM compound with DAPI 3 μM, 20 minutes, epifluorescence microscopy): located exclusively in the nucleus; stability at the focal point of the microscope lens (CHO K1 cells; fixed CHO K1 cells, 2 μM, epifluorescence microscopy): very stable; effect of irradiation on fluorescence emission [1]: scarcely modified
39 800 L/mol · cm	474 nm	0.112	37 400 L/mol · cm	491 nm	656 nm	0.07	31 400 L/mol · cm	509 nm	665 nm	C[n+]1ccc(C=Cc2ccc(N(c3ccccc3)c3ccc(C=Cc4cc[n+](C)cc4)cc3)cc2)cc1.[I-].[I-] [TP-2Py, Bis[4-(2-N-methylpyridinium-4-ylvinyl)phenyl]phenylamine iodide]	about 20%	identical to those previously observed in glycerol	δ (efficient two-photon absorption section) ([4]; glyc.): 315 GM; wavelength of relative maximum of two-photon absorption ([4]; in glycerol): ~820 nm; dissociation constant Kd (ds26 DNA): of the order of the micromolar; molar extinction coefficient (ε) ([5]; in glycerol, at 474 nm): 37 400 L/mol·cm; shift of absorption spectra caused by the presence of DNA [6, 7]: shift towards the red region; δ (efficient two-photon absorption section) (herring testis DNA; DNA): 200 GM
